Data as given in JP2022155436A, “メトホルミン塩の調製方法” (Guangzhou University, priority 2021, dated 2021).

Assay: Hygroscopicity (moisture uptake) test of metformin salts
Assay type: physicochemical
Details: 25°C, 10 days; for moisture-absorption weight increase: 75% RH (saturated NaCl) and 93% RH (saturated KNO3), sampled on day 5 and day 10; for hygroscopicity compared with metformin: 75% RH and 93% RH

Row | SMILES | moisture-absorption weight increase [%] | hygroscopicity compared with metformin
1 | CN(C)C(=N)N=C(N)N.Oc1cccc2c(O)cccc12 [メトホルミンと1,5-ジヒドロキシナフタレン, メトホルミンと1,5-ジヒドロキシナフタレン塩] | < 5 | 吸湿性が顕著に低下した
2 | CN(C)C(=N)NC(=N)N.O=C(O)Cc1cccc2ccccc12 [メトホルミンと1-ナフタレン酢酸塩] | < 5 | 吸湿性が顕著に低下した
3 | CN(C)C(=N)N=C(N)N.O=C(O)c1ccc2ccccc2c1O [メトホルミンと1-ヒドロキシ-2-ナフトエ酸塩] |  | 吸湿性が顕著に低下した

Next, values leading:

Row | moisture-absorption weight increase [%] | hygroscopicity compared with metformin | SMILES
4 | < 5 | 吸湿性が顕著に低下した | CN(C)C(=N)NC(=N)N.O=C(O)c1ccc2ccccc2c1 [メトホルミンと2-ナフトエ酸塩]
5 | < 5 | 吸湿性が顕著に低下した | CN(C)C(=N)N=C(N)N.O=C(O)c1cc2ccccc2cc1O [メトホルミンと2-ヒドロキシ-3-ナフトエ酸塩form1]
6 | < 5 | 吸湿性が顕著に低下した | CN(C)C(=N)NC(=N)N.O=C(O)c1cc2ccccc2cc1O [メトホルミンと2-ヒドロキシ-3-ナフトエ酸塩form2]
